Laboratory results as given in US20220361496A1, “HERBICIDE COMPOSITIONS” (UPL CORPORATION LIMITED, priority 2019, published 2022).

Key:
Type in all cases: in vivo
Brachiaria plantaginea = experiment: Pre-emergence herbicidal efficacy, % control of Brachiaria plantaginea; conditions: for % Control 35 DAA Brachiaria plantaginea: 35 DAA (Table 3)
Experimental: (§1) Experiments were carried out evaluate the efficacy, selectivity and synergism of propisochlor combinations when applied at soybean pre-emergence.
(§2) The evaluation for the damage on undesired weeds caused by the compositions was carried out using a scale from 0 to 100%, compared to the untreated control plants. Here, 0 means no damage and 100 means complete destruction of the plants.
(§3) The tables 1 below relate to the herbicidal activity, of the individual actives and the combinations applied in pre-emergence application at 35 days after administration (DAA) treatment.

Ipomoea hederifolia = experiment: Pre-emergence herbicidal efficacy, % weed control of Ipomoea hederifolia
Experimental: as §1, §2, §3

Spermacoce verticillata = experiment: Pre-emergence herbicidal efficacy, % weed control of Spermacoce verticillata
Experimental: as §1, §2, §3

Cenchrus echinatus = experiment: Pre-emergence herbicidal efficacy, % control of Cenchrus echinatus
Experimental: as §1, §2

Brachiaria decumbens = experiment: Pre-emergence herbicidal efficacy, % control of Brachiaria decumbens
Experimental: as §1, §2

Ipomoea grandifolia = experiment: Pre-emergence herbicidal efficacy, % control of Ipomoea grandifolia
Experimental: as §1, §2

In the case of `Cc1nn(-c2cc(NS(C)(=O)=O)c(Cl)cc2Cl)c(=O)n1C(F)F` [Sulfentrazone], the “% Control 35 DAA Brachiaria plantaginea” value (Brachiaria plantaginea; 150 g ai/ha) was 65.00%, the “% Weed control 35 DAA Ipomoea hederifolia” value (Ipomoea hederifolia; 75 g ai/ha) was 98.00% and the “% Weed control 35 DAA Spermacoce verticillata” value (Spermacoce verticillata; 75 g ai/ha) was 92.25%.

For `CC(C)C1(C)N=C(c2nc3ccccc3cc2C(=O)O)NC1=O` (stereo not drawn) [imazaquin], the “% Control - Cenchrus echinatus 7 DAA” value (Cenchrus echinatus; 80.5 g ai/ha) was 18.8%, the “% Control - Cenchrus echinatus 28 DAA” value (Cenchrus echinatus; 80.5 g ai/ha) was 10.0% and the “% Control - Cenchrus echinatus 35 DAA” value (Cenchrus echinatus; 80.5 g ai/ha) was 6.3%. For the same compound, the “% Control of Brachiaria decumbens 7 DAA” value (Brachiaria decumbens; 80.5 g ai/ha) was 30%, the “% Control of Brachiaria decumbens 14 DAA” value (Brachiaria decumbens; 80.5 g ai/ha) was 22.5% and the “% Control of Brachiaria decumbens 21 DAA” value (Brachiaria decumbens; 80.5 g ai/ha) was 21.3%. The “% Control of Brachiaria decumbens 28 DAA” value (Brachiaria decumbens; 80.5 g ai/ha) was 18.8%.

In the case of `CC(C)C1(C)N=C(c2ncccc2C(=O)O)NC1=O` (stereo not drawn) [imazapyr], the “% Control - Cenchrus echinatus 7 DAA” value (Cenchrus echinatus; 26.6 g ai/ha) was 3.8%, the “% Control - Cenchrus echinatus 28 DAA” value (Cenchrus echinatus; 26.6 g ai/ha) was 0.0% and the “% Control - Cenchrus echinatus 35 DAA” value (Cenchrus echinatus; 26.6 g ai/ha) was 0.0%. For the same compound, the “% Control of Brachiaria decumbens 7 DAA” value (Brachiaria decumbens; 26.6 g ai/ha) was 30%, the “% Control of Brachiaria decumbens 14 DAA” value (Brachiaria decumbens; 26.6 g ai/ha) was 12.5% and the “% Control of Brachiaria decumbens 21 DAA” value (Brachiaria decumbens; 26.6 g ai/ha) was 6.3%. For the same compound, the “% Control of Brachiaria decumbens 28 DAA” value (Brachiaria decumbens; 26.6 g ai/ha) was 2.5%, the “% Control of Ipomoea grandifolia 7 DAA” value (Ipomoea grandifolia; 66.6 g ai/ha) was 16.3% and the “% Control of Ipomoea grandifolia 14 DAA” value (Ipomoea grandifolia; 66.6 g ai/ha) was 30.0%. For the same compound, the “% Control of Ipomoea grandifolia 21 DAA” value (Ipomoea grandifolia; 66.6 g ai/ha) was 51.3%, the “% Control of Ipomoea grandifolia 28 DAA” value (Ipomoea grandifolia; 66.6 g ai/ha) was 62.5% and the “% Control of Ipomoea grandifolia 35 DAA” value (Ipomoea grandifolia; 66.6 g ai/ha) was 63.8%.

`CCOc1nc(F)cc2nc(S(=O)(=O)Nc3c(Cl)cccc3Cl)nn12` [Diclosulam] was tested, and the “% Control of Brachiaria plantaginea 35 DAA” value (Brachiaria plantaginea; 20 g ai/ha) was 50.0%.

`CCc1cccc(C)c1N(COC(C)C)C(=O)CCl` [propisochlor] was tested, and the “% Control of Brachiaria plantaginea 35 DAA” value (Brachiaria plantaginea; 1200 g ai/ha) was 84.50%, the “% Control 35 DAA Brachiaria plantaginea” value (Brachiaria plantaginea; 1200 g ai/ha) was 84.50% and the “% Weed control 35 DAA Ipomoea hederifolia” value (Ipomoea hederifolia; 525 g ai/ha) was 26.25%. For the same compound, the “% Weed control 35 DAA Ipomoea hederifolia” value (Ipomoea hederifolia; 675 g ai/ha) was 27%, the “% Weed control 35 DAA Spermacoce verticillata” value (Spermacoce verticillata; 525 g ai/ha) was 92.75% and the “% Weed control 35 DAA Spermacoce verticillata” value (Spermacoce verticillata; 675 g ai/ha) was 95.75%. For the same compound, the “% Control - Cenchrus echinatus 7 DAA” value (Cenchrus echinatus; 540.0 g ai/ha) was 91.3%, the “% Control - Cenchrus echinatus 28 DAA” value (Cenchrus echinatus; 540.0 g ai/ha) was 75.8% and the “% Control - Cenchrus echinatus 35 DAA” value (Cenchrus echinatus; 540.0 g ai/ha) was 65.0%. For the same compound, the “% Control - Cenchrus echinatus 7 DAA” value (Cenchrus echinatus; 1080.0 g ai/ha) was 95.3%, the “% Control - Cenchrus echinatus 28 DAA” value (Cenchrus echinatus; 1080.0 g ai/ha) was 85.0% and the “% Control - Cenchrus echinatus 35 DAA” value (Cenchrus echinatus; 1080.0 g ai/ha) was 80.0%. The “% Control of Brachiaria decumbens 7 DAA” value (Brachiaria decumbens; 540 g ai/ha) was 89.5%, the “% Control of Brachiaria decumbens 14 DAA” value (Brachiaria decumbens; 540 g ai/ha) was 85.8% and the “% Control of Brachiaria decumbens 21 DAA” value (Brachiaria decumbens; 540 g ai/ha) was 78.8%. The “% Control of Brachiaria decumbens 28 DAA” value (Brachiaria decumbens; 540 g ai/ha) was 70%, the “% Control of Brachiaria decumbens 7 DAA” value (Brachiaria decumbens; 1080 g ai/ha) was 92.8% and the “% Control of Brachiaria decumbens 14 DAA” value (Brachiaria decumbens; 1080 g ai/ha) was 91%. The “% Control of Brachiaria decumbens 21 DAA” value (Brachiaria decumbens; 1080 g ai/ha) was 85%, the “% Control of Brachiaria decumbens 28 DAA” value (Brachiaria decumbens; 1080 g ai/ha) was 76.3% and the “% Control of Ipomoea grandifolia 7 DAA” value (Ipomoea grandifolia; 540 g ai/ha) was 81.3%. For the same compound, the “% Control of Ipomoea grandifolia 14 DAA” value (Ipomoea grandifolia; 540 g ai/ha) was 87.0%, the “% Control of Ipomoea grandifolia 21 DAA” value (Ipomoea grandifolia; 540 g ai/ha) was 87.5% and the “% Control of Ipomoea grandifolia 28 DAA” value (Ipomoea grandifolia; 540 g ai/ha) was 91.3%. For the same compound, the “% Control of Ipomoea grandifolia 35 DAA” value (Ipomoea grandifolia; 540 g ai/ha) was 91.8%.
